Reference: US10543212B2, “Substituted amines for treating cardiac diseases” (Cardurion Pharmaceuticals, LLC, priority 2017, dated 2020)

These molecules were tested against T1, Full-length, GST-tagged, human CaMKIIδ (Homo sapiens, UniProt Q13557) (assay: CaMKIIδ binding assay (TR-FRET with BODIPY-labeled probe ligand)). Conditions: Table 2; CaMKIIδ binding assay, activity given as class A/B/C.
T1 construct: Full-Length, Glutathione-S-Transferase(GST)-Tagged, Human CaMKIIδ was purchased from Carna Biosciences; purchased Carna Biosciences 02-111
T1 sequence (Q13557 1-478 isoform Q13557-12): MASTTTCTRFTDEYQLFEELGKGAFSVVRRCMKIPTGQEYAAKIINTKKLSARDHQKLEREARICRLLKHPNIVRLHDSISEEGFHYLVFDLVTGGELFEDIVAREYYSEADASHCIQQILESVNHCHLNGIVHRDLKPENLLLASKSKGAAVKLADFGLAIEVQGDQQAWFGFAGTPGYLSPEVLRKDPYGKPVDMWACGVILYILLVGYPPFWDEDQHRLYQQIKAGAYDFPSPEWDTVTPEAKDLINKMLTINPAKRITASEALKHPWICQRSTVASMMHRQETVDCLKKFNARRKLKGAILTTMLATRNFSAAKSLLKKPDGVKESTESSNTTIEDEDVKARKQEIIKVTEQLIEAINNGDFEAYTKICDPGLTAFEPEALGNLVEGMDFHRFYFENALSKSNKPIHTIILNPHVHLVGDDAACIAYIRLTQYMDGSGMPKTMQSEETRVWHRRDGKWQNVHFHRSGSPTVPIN
Method in brief: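 TR-FRET probe-displacement binding: 0.5 nM GST-CaMKIIδ with 10 μg/mL calmodulin, 1 mM CaCl2, 0.21 nM Tb-anti-GST Ab and 300 nM BODIPY probe in HEPES pH 7.6 buffer. Eight-point 4-fold dilutions, 1 hr at room temperature. IC50 from logistic fit; 100% inhibition defined by 3 μM parent compound.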
Molecule `Cc1ccc(-c2cnc(Nc3cn(C4CCN(C5CCOCC5)CC4)nc3OCC(F)(F)F)nc2)cc1O[C@@H](C)Cn1cnnn1` [Example 788, (S)-5-(3-((1-(1H-tetrazol-1-yl)propan-2-yl)oxy)-4-methylphenyl)-N-(1-(1-(tetrahydro-2H-pyran-4-yl)piperidin-4-yl)-3-(2,2,2-trifluoroethoxy)-1H-pyrazol-4-yl)pyrimidin-2-amine] has an IC50 of under 10 nM.
With `C[C@@H](Cn1cnnn1)Oc1cc(-c2cnc(Nc3cn(C4CCN(C5CCOCC5)CC4)nc3OCC(F)(F)F)nc2)ccc1F` [Example 789, (S)-5-(3-((1-(1H-tetrazol-1-yl)propan-2-yl)oxy)-4-fluorophenyl)-N-(1-(1-(tetrahydro-2H-pyran-4-yl)piperidin-4-yl)-3-(2,2,2-trifluoroethoxy)-1H-pyrazol-4-yl)pyrimidin-2-amine] the IC50 was under 10 nM.
With `C[C@@H](Cn1cnnn1)Oc1cc(-c2cnc(Nc3cn(C4CCN(C5CCOCC5)CC4)nc3OCC(F)(F)F)nc2)ccc1C#N` [Example 790, (S)-2-((1-(1H-tetrazol-1-yl)propan-2-yl)oxy)-4-(2-((1-(1-(tetrahydro-2H-pyran-4-yl)piperidin-4-yl)-3-(2,2,2-trifluoroethoxy)-1H-pyrazol-4-yl)amino)pyrimidin-5-yl)benzonitrile] the IC50 was under 10 nM.
`C[C@@H](Cn1cnnn1)Oc1cc(-c2cnc(Nc3cn(C4CCNCC4)nc3OCC(F)F)nc2)ccc1Cl` [Example 791, (S)-5-(3-((1-(1H-tetrazol-1-yl)propan-2-yl)oxy)-4-chlorophenyl)-N-(3-(2,2-difluoroethoxy)-1-(piperidin-4-yl)-1H-pyrazol-4-yl)pyrimidin-2-amine] was tested, and the IC50 was under 10 nM.
In the case of `C[C@@H](Cn1cnnn1)Oc1cc(-c2cnc(Nc3cn(C4CCN(C5CCOCC5)CC4)nc3OCC(F)F)nc2)ccc1Cl` [Example 792, (S)-5-(3-((1-(1H-tetrazol-1-yl)propan-2-yl)oxy)-4-chlorophenyl)-N-(3-(2,2-difluoroethoxy)-1-(1-(tetrahydro-2H-pyran-4-yl)piperidin-4-yl)-1H-pyrazol-4-yl)pyrimidin-2-amine], the IC50 is reported as under 10 nM.
Work on `C[C@@H](Cn1cnnn1)Oc1cc(-c2cnc(Nc3cn(C4CCN(C)CC4)nc3OCC(F)F)nc2)ccc1Cl` [Example 793, (S)-5-(3-((1-(1H-tetrazol-1-yl)propan-2-yl)oxy)-4-chlorophenyl)-N-(3-(2,2-difluoroethoxy)-1-(1-methylpiperidin-4-yl)-1H-pyrazol-4-yl)pyrimidin-2-amine] yielded an IC50 of under 10 nM.
With `C[C@@H](Cn1cnnn1)Oc1cc(-c2cnc(Nc3cn(C4CCN(C5CC5)CC4)nc3OCC(F)(F)F)nc2)ccc1Cl` [Example 794, (S)-5-(3-((1-(1H-tetrazol-1-yl)propan-2-yl)oxy)-4-chlorophenyl)-N-(1-(1-cyclopropylpiperidin-4-yl)-3-(2,2,2-trifluoroethoxy)-1H-pyrazol-4-yl)pyrimidin-2-amine] the IC50 was under 10 nM.
Work on `COC[C@@H](C)n1cc(Nc2ncc(-c3ccc(Cl)c(O[C@@H](C)Cn4cnnn4)c3)cn2)c(OCC(F)(F)F)n1` [Example 796, 5-(3-(((S)-1-(1H-tetrazol-1-yl)propan-2-yl)oxy)-4-chlorophenyl)-N-(1-((R)-1-methoxypropan-2-yl)-3-(2,2,2-trifluoroethoxy)-1H-pyrazol-4-yl)pyrimidin-2-amine] yielded an IC50 of under 10 nM.
`C[C@@H](Cn1cccn1)Oc1cc(-c2cnc(Nc3cn([C@H]4CC[C@@H](N5CCOCC5)CC4)nc3OCC(F)(F)F)nc2)ccc1C#N` [Example 797, 2-(((S)-1-(1H-pyrazol-1-yl)propan-2-yl)oxy)-4-(2-((1-(cis-4-morpholinocyclohexyl)-3-(2,2,2-trifluoroethoxy)-1H-pyrazol-4-yl)amino)pyrimidin-5-yl)benzonitrile] showed an IC50 of 10 to 100 nM.
`C[C@@H](Cn1cccn1)Oc1cc(-c2cnc(Nc3cn([C@H]4CC[C@H](N5CCOCC5)CC4)nc3OCC(F)(F)F)nc2)ccc1C#N` [Example 798, 2-(((S)-1-(1H-pyrazol-1-yl)propan-2-yl)oxy)-4-(2-((1-(trans-4-morpholinocyclohexyl)-3-(2,2,2-trifluoroethoxy)-1H-pyrazol-4-yl)amino)pyrimidin-5-yl)benzonitrile] gave an IC50 of under 10 nM.
`CC(O)Cn1cc(Nc2ncc(-c3ccc(Cl)c(O[C@@H](C)Cn4cnnn4)c3)cn2)c(OCC(F)(F)F)n1` (stereo partly drawn) [Example 799, 1-(4-((5-(3-(((S)-1-(1H-tetrazol-1-yl)propan-2-yl)oxy)-4-chlorophenyl)pyrimidin-2-yl)amino)-3-(2,2,2-trifluoroethoxy)-1H-pyrazol-1-yl)propan-2-ol] was tested, and the IC50 was under 10 nM.
Molecule `C[C@@H](Cn1cnnn1)Oc1cc(-c2cnc(Nc3cn(C4CCC(=O)CC4)nc3OCC(F)F)nc2)ccc1Cl` [Example 800, (S)-4-(4-((5-(3-((1-(1H-tetrazol-1-yl)propan-2-yl)oxy)-4-chlorophenyl)pyrimidin-2-yl)amino)-3-(2,2-difluoroethoxy)-1H-pyrazol-1-yl)cyclohexan-1-one] has an IC50 of under 10 nM.
Work on `C[C@@H](Cn1cnnn1)Oc1cc(-c2cnc(Nc3cn([C@H]4CC[C@@H](N5CC(C)(O)C5)CC4)nc3OCC(F)(F)F)nc2)ccc1Cl` [Example 801, 1-(cis-4-(4-((5-(3-(((S)-1-(1H-tetrazol-1-yl)propan-2-yl)oxy)-4-chlorophenyl)pyrimidin-2-yl)amino)-3-(2,2,2-trifluoroethoxy)-1H-pyrazol-1-yl)cyclohexyl)-3-methylazetidin-3-ol] yielded an IC50 of under 10 nM.
`C[C@@H](Cn1cnnn1)Oc1cc(-c2cnc(Nc3cn([C@H]4CC[C@H](N5CC(C)(O)C5)CC4)nc3OCC(F)(F)F)nc2)ccc1Cl` [Example 802, 1-(trans-4-(4-((5-(3-(((S)-1-(1H-tetrazol-1-yl)propan-2-yl)oxy)-4-chlorophenyl)pyrimidin-2-yl)amino)-3-(2,2,2-trifluoroethoxy)-1H-pyrazol-1-yl)cyclohexyl)-3-methylazetidin-3-ol] gave an IC50 of under 10 nM.
`C[C@@H](Cn1cnnn1)Oc1cc(-c2cnc(Nc3cn([C@H]4CC[C@@H](N5CC(C)(O)C5)CC4)nc3C(F)(F)F)nc2)ccc1Cl` [Example 803, 1-(cis-4-(4-((5-(3-(((S)-1-(1H-tetrazol-1-yl)propan-2-yl)oxy)-4-chlorophenyl)pyrimidin-2-yl)amino)-3-(trifluoromethyl)-1H-pyrazol-1-yl)cyclohexyl)-3-methylazetidin-3-ol] gave an IC50 of under 10 nM.
Molecule `C[C@@H](Cn1cnnn1)Oc1cc(-c2cnc(Nc3cn([C@H]4CC[C@H](N5CC(C)(O)C5)CC4)nc3C(F)(F)F)nc2)ccc1Cl` [Example 804, 1-(trans-4-(4-((5-(3-(((S)-1-(1H-tetrazol-1-yl)propan-2-yl)oxy)-4-chlorophenyl)pyrimidin-2-yl)amino)-3-(trifluoromethyl)-1H-pyrazol-1-yl)cyclohexyl)-3-methylazetidin-3-ol] has an IC50 of under 10 nM.
For `C[C@@H](Cn1cnnn1)Oc1cc(-c2cnc(Nc3cn([C@H]4CC[C@@H](N5CCOCC5)CC4)nc3OCC(F)F)nc2)ccc1Cl` [Example 805, 5-(3-(((S)-1-(1H-tetrazol-1-yl)propan-2-yl)oxy)-4-chlorophenyl)-N-(3-(2,2-difluoroethoxy)-1-(cis-4-morpholinocyclohexyl)-1H-pyrazol-4-yl)pyrimidin-2-amine], the IC50 was under 10 nM.
With `C[C@@H](Cn1cnnn1)Oc1cc(-c2cnc(Nc3cn([C@H]4CC[C@@H](N5CCOCC5)CC4)nc3C(F)(F)F)nc2)ccc1F` [Example 807, 5-(3-(((S)-1-(1H-tetrazol-1-yl)propan-2-yl)oxy)-4-fluorophenyl)-N-(1-(cis-4-morpholinocyclohexyl)-3-(trifluoromethyl)-1H-pyrazol-4-yl)pyrimidin-2-amine] the IC50 was 10 to 100 nM.
